Assays:
[1] = tested on: batrachotoxin (BTX) binding site of the sodium channel; assay: Affinity to the batrachotoxin (BTX) binding site of the sodium channel; conditions: rat cerebrocortex synaptosomes, [3H]-batrachotoxinin A20 α-benzoate 10 nM; test concentration not given
NA transporter = assay: Inhibition of noradrenalin uptake in synaptosomes; type: biochemical
5-HT transporter = target: T1, 5-HT transporter (Rattus norvegicus, UniProt P31652); assay: Inhibition of 5-HT uptake in synaptosomes; type: biochemical; conditions: for inhibition at 1 µM: read-out: Uptake_5-HT, rat, 1 μM, % inhibition
T1 construct: from tissue; host or cells: rat brain synaptosomes (marrow/medulla and pons), P2 fraction
T1 sequence (P31652 whole entry): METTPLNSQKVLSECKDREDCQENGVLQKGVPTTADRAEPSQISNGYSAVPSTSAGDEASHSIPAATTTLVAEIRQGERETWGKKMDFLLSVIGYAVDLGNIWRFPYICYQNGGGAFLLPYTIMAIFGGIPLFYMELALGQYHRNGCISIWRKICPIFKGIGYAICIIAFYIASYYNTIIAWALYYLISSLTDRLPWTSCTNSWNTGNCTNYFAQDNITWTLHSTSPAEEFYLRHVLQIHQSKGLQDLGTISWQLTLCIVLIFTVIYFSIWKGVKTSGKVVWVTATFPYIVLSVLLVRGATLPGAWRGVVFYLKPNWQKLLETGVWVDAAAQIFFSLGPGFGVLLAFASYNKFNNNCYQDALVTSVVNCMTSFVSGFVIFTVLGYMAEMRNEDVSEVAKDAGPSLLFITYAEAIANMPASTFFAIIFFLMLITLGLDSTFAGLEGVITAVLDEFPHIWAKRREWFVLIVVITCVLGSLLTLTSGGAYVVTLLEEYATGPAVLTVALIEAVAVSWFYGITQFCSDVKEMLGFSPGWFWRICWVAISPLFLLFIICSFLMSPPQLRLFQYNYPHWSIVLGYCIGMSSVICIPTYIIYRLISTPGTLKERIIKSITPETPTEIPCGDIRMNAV

COc1cc(C)c(S(=O)(=O)N2CCC3(CC2)NC(=O)C(Cc2ccccc2)N3)c(C)c1C (stereo not drawn) [Example 4, 3-Benzyl-8-(4-methoxy-2,3,6-trimethylbenzolsulfonyl)-1,4,8-triazaspiro[4,5]decan-2-one]
BTX Inhibition [1]: 53 | Uptake (NA), rat, 10 μM, % inhibition (NA transporter): 34%

CN(C)S(=O)(=O)N1CCC2(CC1)NCC(=O)N2Cc1ccccc1 [Example 9, 1-Benzyl-2-oxo-1,4,8-triazaspiro[4,5]decan-8-sulfonic acid dimethylamide]
Uptake (NA), rat, 10 μM, % inhibition (NA transporter): 40%

CCOC(=O)CC(C)NC(=S)N1CCC2(CC1)NC(Cc1ccccc1)C(=O)N2C (stereo not drawn) [Example 131, Ethyl 3-[(3-benzyl-1-methyl-2-oxo-1,4,8-triazaspiro[4,5]decan-8-carbothioyl)amino]-butyrate]
BTX Inhibition [1]: 42 | Uptake (NA), rat, 10 μM, % inhibition (NA transporter): 42%

COC(=O)c1ccc(CN2C(=O)C(C(C)C)NC23CCN(C(=S)NCC2CCCO2)CC3)cc1 (stereo not drawn) [Example 137, Methyl 4-{3-isopropyl-2-oxo-8-[(tetrahydrofuran-2-ylmethyl)thiocarbamoyl]-1,4,8-triazaspiro[4,5]dec-1-ylmethyl}-benzoate]
BTX Inhibition [1]: 37 | Uptake (NA), rat, 10 μM, % inhibition (NA transporter): 30%

CCCCN1C(=O)C(C(C)C)NC12CCN(C(=S)Nc1c(F)c(F)c(F)c(F)c1F)CC2 (stereo not drawn) [Example 152, 1-Butyl-3-isopropyl-2-oxo-1,4,8-triazaspiro[4,5]decan-8-thiocarboxylic acid pentafluorobenzolamide-amide]
BTX Inhibition [1]: 39 | Uptake (NA), rat, 10 μM, % inhibition (NA transporter): 37%

COC(=O)c1ccccc1NC(=S)N1CCC2(CC1)NC(CCSC)C(=O)N2Cc1ccccc1C#N (stereo not drawn) [Example 153, Methyl 2-{[1-(2-cyanobenzyl)-3-(2-methylsulfanylethyl)-2-oxo-1,4,8-triazaspiro[4,5]decan-8-carbothioyl]-amino}-benzoate]
BTX Inhibition [1]: 53 | Uptake (NA), rat, 10 μM, % inhibition (NA transporter): 30%

COc1ccccc1NC(=S)N1CCC2(CC1)NC(C(C)C)C(=O)N2Cc1ccccc1 (stereo not drawn) [Example 155, 1-Benzyl-3-isopropyl-2-oxo-1,4,8-triazaspiro[4,5]decan-8-thiocarboxylic acid (2-methoxy-benzol)amide]
BTX Inhibition [1]: 32 | Uptake (NA), rat, 10 μM, % inhibition (NA transporter): 52%

CC(C)C1NC2(CCN(C(=S)Nc3ccccc3)CC2)N(Cc2ccccc2)C1=O (stereo not drawn) [Example 156, 1-Benzyl-3-isopropyl-2-oxo-1,4,8-triazaspiro[4,5]decan-8-thiocarboxylic acid benzolamide]
Uptake (NA), rat, 10 μM, % inhibition (NA transporter): 33%

CC(C)C1NC2(CCN(C(=S)Nc3cc(F)ccc3F)CC2)N(Cc2ccccc2)C1=O (stereo not drawn) [Example 157, 1-Benzyl-3-isopropyl-2-oxo-1,4,8-triazaspiro[4,5]decan-8-thiocarboxylic acid (2,5-difluorobenzol)amide]
BTX Inhibition [1]: 39 | Uptake (NA), rat, 10 μM, % inhibition (NA transporter): 38%

CCCCN1C(=O)C(CCSC)NC12CCN(C(=S)NCc1ccccc1)CC2 (stereo not drawn) [Example 160, 1-Butyl-3-(2-methylsulfanylethyl)-2-oxo-1,4,8-triazaspiro[4,5]decan-8-thiocarboxylic acid benzylamide]
BTX Inhibition [1]: 63 | Uptake (NA), rat, 10 μM, % inhibition (NA transporter): 42%

CSCCC1NC2(CCN(C(=S)Nc3cccc(C)c3)CC2)N(Cc2ccccc2C#N)C1=O (stereo not drawn) [Example 161, 1-(2-Cyanobenzyl)-3-(2-methylsulfanylethyl)-2-oxo-1,4,8-triazaspiro[4,5]decan-8-thiocarboxylic acid m-tolylamide]
BTX Inhibition [1]: 53 | Uptake (NA), rat, 10 μM, % inhibition (NA transporter): 33%

C=CCN1C(=O)C(C(C)C)NC12CCN(C(=S)NCc1ccc(F)cc1)CC2 (stereo not drawn) [Example 162, 1-Allyl-3-isopropyl-2-oxo-1,4,8-triazaspiro[4,5]decan-8-thiocarboxylic acid 4-fluorobenzylamide]
Uptake (NA), rat, 10 μM, % inhibition (NA transporter): 26%

CCOC(=O)NC(=S)N1CCC2(CC1)NC(C(C)C)C(=O)N2Cc1ccc(C(=O)OC)cc1 (stereo not drawn) [Example 167, Methyl 4-(8-ethoxycarbonylaminocarbothioyl-3-isopropyl-2-oxo-1,4,8-triazaspiro[4,5]dec-1-ylmethyl)benzoate]
Uptake (NA), rat, 10 μM, % inhibition (NA transporter): 42%

COC(=O)c1ccc(CN2C(=O)C(C(C)C)NC23CCN(C(=O)NC2CCCCC2)CC3)cc1 (stereo not drawn) [Example 206, Methyl 4-(8-cyclohexylcarbamoyl-3-isopropyl-2-oxo-1,4,8-triazaspiro[4,5]dec-1-ylmethyl)benzoate]
Uptake (NA), rat, 10 μM, % inhibition (NA transporter): 39%

CCCCN1C(=O)C(CCSC)NC12CCN(C(=O)Nc1ccccc1)CC2 (stereo not drawn) [Example 207, 1-Butyl-3-(2-methylsulfanylethyl)-2-oxo-1,4,8-triazaspiro[4,5]decan-8-carboxylic acid benzolamide]
BTX Inhibition [1]: 35 | Uptake_5-HT, rat, 1 μM, % inhibition (5-HT transporter): 39%

CCCCN1C(=O)C(CCSC)NC12CCN(C(=O)Nc1ccc(OCC)cc1)CC2 (stereo not drawn) [Example 221, 1-Butyl-3-(2-methylsulfanylethyl)-2-oxo-1,4,8-triazaspiro[4,5]decan-8-carboxylic acid (4-ethoxy-benzol)amide]
BTX Inhibition [1]: 44 | Uptake_5-HT, rat, 1 μM, % inhibition (5-HT transporter): 47%

COC(=O)c1ccc(CN2C(=O)C(C(C)C)NC23CCN(C(=O)Nc2cccc(OC)c2)CC3)cc1 (stereo not drawn) [Example 223, Methyl 4-[3-isopropyl-8-(3-methoxy-benzolcarbamoyl)-2-oxo-1,4,8-triazaspiro[4,5]dec-1-ylmethyl]-benzoate]
Uptake (NA), rat, 10 μM, % inhibition (NA transporter): 31%

CCCCN1C(=O)C(CCSC)NC12CCN(C(=O)Nc1ccc(Cl)c(C(F)(F)F)c1)CC2 (stereo not drawn) [Example 227, 1-Butyl-3-(2-methylsulfanylethyl)-2-oxo-1,4,8-triazaspiro[4,5]decan-8-carboxylic acid (4-chloro-3-trifluoromethylbenzol)amide]
BTX Inhibition [1]: 85 | Uptake_5-HT, rat, 1 μM, % inhibition (5-HT transporter): 58%

O=C(Nc1cc(F)ccc1F)N1CCC2(CC1)NC(Cc1ccccc1)C(=O)N2Cc1ccccc1F (stereo not drawn) [Example 230, 3-Benzyl-1-(2-fluorobenzyl)-2-oxo-1,4,8-triazaspiro[4,5]decan-8-carboxylic acid (2,5-difluorobenzol)amide]
BTX Inhibition [1]: 78 | Uptake_5-HT, rat, 1 μM, % inhibition (5-HT transporter): 63%

O=C(NCc1ccc(Cl)c(Cl)c1)N1CCC2(CC1)NC(Cc1ccccc1)C(=O)N2Cc1ccccc1F (stereo not drawn) [Example 233, 3-Benzyl-1-(2-fluorobenzyl)-2-oxo-1,4,8-triazaspiro[4,5]decan-8-carboxylic acid 3,4-dichlorobenzylamide]
BTX Inhibition [1]: 85 | inhibition at 1 µM (5-HT transporter): 44%

CSCCC1NC2(CCN(C(=O)Nc3cccc(C(C)=O)c3)CC2)N(Cc2ccccc2C#N)C1=O (stereo not drawn) [Example 234, 1-(2-Cyanobenzyl)-3-(2-methylsulfanylethyl)-2-oxo-1,4,8-triazaspiro[4,5]decan-8-carboxylic acid (3-acetylbenzol)amide]
BTX Inhibition [1]: 31 | Uptake_5-HT, rat, 1 μM, % inhibition (5-HT transporter): 45%

CCOC(=O)c1ccc(NC(=O)N2CCC3(CC2)NC(Cc2ccccc2)C(=O)N3Cc2ccccc2F)cc1 (stereo not drawn) [Example 235, Ethyl 4-{[3-benzyl-1-(2-fluorobenzyl)-2-oxo-1,4,8-triazaspiro[4,5]decan-8-carbonyl]-amino}-benzoate]
BTX Inhibition [1]: 77 | inhibition at 1 µM (5-HT transporter): 65%

CSCCC1NC2(CCN(C(=O)Nc3ccc(OC(F)(F)F)cc3)CC2)N(Cc2ccc(F)cc2)C1=O (stereo not drawn) [Example 237, 1-(4-Fluorobenzyl)-3-(2-methylsulfanylethyl)-2-oxo-1,4,8-triazaspiro[4,5]decan-8-carboxylic acid (4-trifluoromethoxy-benzol)amide]
BTX Inhibition [1]: 87 | Uptake_5-HT, rat, 1 μM, % inhibition (5-HT transporter): 39%

O=C(NC1CCCCC1)N1CCC2(CC1)NC(Cc1ccccc1)C(=O)N2Cc1ccccc1F (stereo not drawn) [Example 238, 3-Benzyl-1-(2-fluorobenzyl)-2-oxo-1,4,8-triazaspiro[4,5]decan-8-carboxylic acid cyclohexylamide]
BTX Inhibition [1]: 73 | inhibition at 1 µM (5-HT transporter): 43%

CSCCC1NC2(CCN(C(=O)NCCc3ccccc3)CC2)N(Cc2ccc(F)cc2)C1=O (stereo not drawn) [Example 239, 1-(4-Fluorobenzyl)-3-(2-methylsulfanylethyl)-2-oxo-1,4,8-triazaspiro[4,5]decan-8-carboxylic acid phenethylamide]
BTX Inhibition [1]: 69 | inhibition at 1 µM (5-HT transporter): 36%

CSCCC1NC2(CCN(C(=O)Nc3cccc(F)c3)CC2)N(Cc2ccc3ccccc3c2)C1=O (stereo not drawn) [Example 240, 3-(2-Methylsulfanylethyl)-1-naphthalin-2-ylmethyl-2-oxo-1,4,8-triazaspiro[4,5]decan-8-carboxylic acid (3-fluorobenzol)amide]
BTX Inhibition [1]: 78 | Uptake_5-HT, rat, 1 μM, % inhibition (5-HT transporter): 63%

COC(=O)c1ccc(CN2C(=O)C(C(C)C)NC23CCN(C(=O)Nc2ccc(Cl)c(C(F)(F)F)c2)CC3)cc1 (stereo not drawn) [Example 241, Methyl 4-[8-(4-chloro-3-trifluoromethylbenzolcarbamoyl)-3-isopropyl-2-oxo-1,4,8-triazaspiro[4,5]dec-1-ylmethyl]-benzoate]
BTX Inhibition [1]: 78 | Uptake_5-HT, rat, 1 μM, % inhibition (5-HT transporter): 31%

COc1ccc(OC)c(NC(=O)N2CCC3(CC2)NC(CCSC)C(=O)N3Cc2cccc(C#N)c2)c1 (stereo not drawn) [Example 242, 1-(3-Cyanobenzyl)-3-(2-methylsulfanylethyl)-2-oxo-1,4,8-triazaspiro[4,5]decan-8-carboxylic acid (2,5-dimethoxy-benzol)amide]
BTX Inhibition [1]: 46 | Uptake_5-HT, rat, 1 μM, % inhibition (5-HT transporter): 30%

CCOc1ccc(NC(=O)N2CCC3(CC2)NC(CCSC)C(=O)N3Cc2ccc(F)cc2)cc1 (stereo not drawn) [Example 243, 1-(4-Fluorobenzyl)-3-(2-methylsulfanylethyl)-2-oxo-1,4,8-triazaspiro[4,5]decan-8-carboxylic acid (4-ethoxy-benzol)amide]
BTX Inhibition [1]: 48 | Uptake_5-HT, rat, 1 μM, % inhibition (5-HT transporter): 40%

Ethyl[3-b-8-(3-fluorobenzolcarbamoyl)-2-oxo-1,4,8-triazaspiro[4,5]dec-1-yl]-acetate [Example 245]
BTX Inhibition [1]: 31 | Uptake_5-HT, rat, 1 μM, % inhibition (5-HT transporter): 51%
